Reference: US20140171357A1, “VANCOMYCIN DERIVATIVES” (Seachald Pharmaceuticals, Inc., priority 2011, published 2014)
Values after ≈ are worked out from the molar mass of the structure shown.

Experiments:
[1] = system: β-hemolytic streptococci (23); test: MIC broth microdilution, β-hemolytic streptococci; settings: for fold more potent than teicoplanin and daptomycin / fold more potent than vancomycin: β-hemolytic streptococci; for MIC 50% / MIC 90%: β-hemolytic streptococci (23), MHB + lysed horse blood
[2] = system: heterogeneous VISA (hVISA, 10); test: MIC broth microdilution, hVISA
[3] = system: methicillin-susceptible S. aureus (MSSA, 22); test: MIC broth microdilution, MSSA; settings: for MIC 50% / MIC 90%: MSSA (22)
VanC enterococci (22) = test: MIC broth microdilution, vanC-carrying enterococci; settings: VanC enterococci (22)
S. aureus ATCC 25923 = test: Neutropenic murine thigh infection model; settings: for AUCc-t (AUC difference between control and treated animals): 24 h time kill; for in vivo efficacy against S. aureus (in words): neutropenic soft tissue infection model
[4] = system: Staphylococcus epidermidis (43 strains); test: MIC broth microdilution, S. epidermidis; settings: S. epidermidis (43)
[5] = system: vancomycin-susceptible E. faecalis (23); test: MIC broth microdilution, vancomycin-susceptible E. faecalis; settings: E. faecalis, vancomycin-susceptible (23)
S. pneumoniae (22) = test: MIC broth microdilution, S. pneumoniae; settings: for MIC 50% / MIC 90%: S. pneumoniae (22), MHB + lysed horse blood
[6] = system: VanA vancomycin-resistant E. faecium (10); test: MIC broth microdilution, VanA E. faecium; settings: E. faecium, VanA (10)
[7] = system: Staphylococcus aureus (65 strains); test: MIC broth microdilution, S. aureus all isolates; settings: S. aureus (65), all resistance subsets
[8] = system: vancomycin-intermediate S. aureus (VISA, 5); test: MIC broth microdilution, VISA
B. anthracis Sterne 105 = assay type: cell-based, Bacillus anthracis; settings: Tween 80 0.002% medium, serum condition not stated
[9] = system: VanA vancomycin-resistant E. faecalis (11); test: MIC broth microdilution, VanA E. faecalis; settings: E. faecalis, VanA (11)
[10] = system: VanB vancomycin-resistant E. faecium (10); test: MIC broth microdilution, VanB E. faecium; settings: E. faecium, VanB (10)
[11] = system: VanB vancomycin-resistant E. faecalis (12); test: MIC broth microdilution, VanB E. faecalis; settings: E. faecalis, VanB (12)
[12] = system: methicillin-resistant S. aureus (MRSA, 22); test: MIC broth microdilution, MRSA; settings: for MIC 50% / MIC 90%: MRSA (22)
[13] = system: vancomycin-susceptible E. faecium (21); test: MIC broth microdilution, vancomycin-susceptible E. faecium; settings: E. faecium, vancomycin-susceptible (21)
[14] = system: vancomycin-resistant S. aureus (VRSA, 6); test: MIC broth microdilution, VRSA
[15] = 1 mg/kg single intraperitoneal dose
[16] = 4 mg/kg single intraperitoneal dose
[17] = 16 mg/kg single intraperitoneal dose

Question: Which “fold more potent than teicoplanin and daptomycin” value [1] does the source give for `CNC(CC(C)C)C(=O)NC1C(=O)NC(CC(N)=O)C(=O)NC2C(=O)NC3C(=O)NC(C(=O)NC(C(=O)O)c4cc(O)c(CNCCOCCOCC[N+](C)(C)C)c(O)c4-c4cc3ccc4O)C(O)c3ccc(c(Cl)c3)Oc3cc2cc(c3OC2OC(CO)C(O)C(O)C2OC2CC(C)(NCc3ccc(OCc4ccc(Cl)c(Cl)c4)cc3)C(O)C(C)O2)Oc2ccc(cc2Cl)C1O` (centres unmarked) [Compound 29] here?
Answer: Its value is “two- to four”.

Question: What about the “fold more potent than vancomycin” value [1] of the same compound?
Answer: The value was “four- to eight”.

Question: What about the “MIC 50%” value [1] of the same compound?
Answer: The value was 0.03 µg/mL.

Question: What about the “MIC 90%” value [1] of the same compound?
Answer: The value was 0.12 µg/mL.

Question: And the “MIC 50%” value [2]?
Answer: Its value is 0.06 µg/mL.

Question: And the “MIC 90%” value [2]?
Answer: The value was 0.12 µg/mL.

Question: What about the “MIC 50%” value [3] of the same compound?
Answer: The value was 0.06 µg/mL.

Question: What about the “MIC 90%” value [3] of the same compound?
Answer: Its value is 0.12 µg/mL.

Question: And the “MIC 50%” value (VanC enterococci (22))?
Answer: Its value is 0.12 µg/mL.

Question: What about the “MIC 90%” value (VanC enterococci (22)) of the same compound?
Answer: Its value is 0.5 µg/mL.

Question: What about the “Max Kill (maximum decrease from initial infection level)” value (S. aureus ATCC 25923; [15]) of the same compound?
Answer: The value was 0.08 Log10 CFU/thigh.

Question: And the “AUCc-t (AUC difference between control and treated animals)” value (S. aureus ATCC 25923; [15])?
Answer: The value was 17.7 (Log10 CFU/thigh)/hr.

Question: And the “Max Kill (maximum decrease from initial infection level)” value (S. aureus ATCC 25923; [16])?
Answer: The value was 0.07 Log10 CFU/thigh.

Question: What about the “AUCc-t (AUC difference between control and treated animals)” value (S. aureus ATCC 25923; [16]) of the same compound?
Answer: The value was 22.6 (Log10 CFU/thigh)/hr.

Question: What about the “Max Kill (maximum decrease from initial infection level)” value (S. aureus ATCC 25923; [17]) of the same compound?
Answer: Its value is −1.05 Log10 CFU/thigh.

Question: What about the “AUCc-t (AUC difference between control and treated animals)” value (S. aureus ATCC 25923; [17]) of the same compound?
Answer: Its value is 45.2 (Log10 CFU/thigh)/hr.

Question: And the “in vivo efficacy against S. aureus (in words)” value (S. aureus ATCC 25923)?
Answer: Its value is “bactericidal characteristics and prolonged in vivo activity”.

Question: What about the “MIC 50%” value [4] of the same compound?
Answer: The value was 0.03 µg/mL.

Question: And the “MIC 90%” value [4]?
Answer: The value was 0.06 µg/mL.

Question: And the “MIC 50%” value [5]?
Answer: The value was 0.12 µg/mL.

Question: And the “MIC 90%” value [5]?
Answer: The value was 0.12 µg/mL.

Question: And the “MIC 50%” value (S. pneumoniae (22))?
Answer: Its value is 0.03 µg/mL.

Question: And the “MIC 90%” value (S. pneumoniae (22))?
Answer: The value was 0.06 µg/mL.

Question: And the “MIC 50%” value [6]?
Answer: The value was 1 µg/mL.

Question: And the “MIC 90%” value [6]?
Answer: Its value is 2 µg/mL.

Question: What about the “MIC 50%” value [7] of the same compound?
Answer: Its value is 0.06 µg/mL.

Question: And the “MIC 90%” value [7]?
Answer: The value was 0.25 µg/mL.

Question: And the “MIC 50%” value [8]?
Answer: Its value is 0.25 µg/mL.

Question: What about the MIC (B. anthracis Sterne 105) of the same compound?
Answer: Its MIC is 0.03 µg/mL.

Question: What about the “MIC 50%” value [9] of the same compound?
Answer: The value was 4 µg/mL.

Question: What about the “MIC 90%” value [9] of the same compound?
Answer: Its value is 4 µg/mL.

Question: What about the “MIC 50%” value [10] of the same compound?
Answer: Its value is 0.06 µg/mL.

Question: And the “MIC 90%” value [10]?
Answer: The value was 0.06 µg/mL.

Question: What about the “MIC 50%” value [11] of the same compound?
Answer: Its value is 0.12 µg/mL.

Question: What about the “MIC 90%” value [11] of the same compound?
Answer: Its value is 0.12 µg/mL.

Question: What about the “MIC 50%” value [12] of the same compound?
Answer: The value was 0.06 µg/mL.

Question: What about the “MIC 90%” value [12] of the same compound?
Answer: Its value is 0.12 µg/mL.

Question: What about the “MIC 50%” value [13] of the same compound?
Answer: The value was 0.03 µg/mL.

Question: What about the “MIC 90%” value [13] of the same compound?
Answer: Its value is 0.06 µg/mL.

Question: And the “MIC 50%” value [14]?
Answer: The value was 4 µg/mL.

Question: Which results are given for `CCCCCCCCCCNCCNC1(C)CC(OC2C(Oc3c4cc5cc3Oc3ccc(cc3Cl)C(O)C3NC(=O)C(NC(=O)C5NC(=O)C(CC(N)=O)NC(=O)C(NC(=O)C(CC(C)C)NC)C(O)c5ccc(c(Cl)c5)O4)c4ccc(O)c(c4)-c4c(O)cc(O)cc4C(C(=O)NCCOCCOCCN)NC3=O)OC(CO)C(O)C2O)OC(C)C1O` (centres unmarked) [Compound 2]?
Answer: fold more potent than teicoplanin and daptomycin [1]: two- to four; fold more potent than vancomycin [1]: four- to eight; MIC 50% [1]: 0.03 µg/mL; MIC 90% [1]: 0.12 µg/mL; MIC 50% [2]: 0.06 µg/mL (≈ 0.034 µM); MIC 90% [2]: 0.12 µg/mL (≈ 0.0681 µM); modal MIC ([3]; MSSA): 0.03 µg/mL; MIC 50% [3]: 0.03 µg/mL (≈ 0.017 µM); MIC 90% [3]: 0.12 µg/mL (≈ 0.0681 µM); MIC 50% (VanC enterococci (22)): 0.06 µg/mL (≈ 0.034 µM); MIC 90% (VanC enterococci (22)): 0.12 µg/mL (≈ 0.0681 µM); Max Kill (maximum decrease from initial infection level) (S. aureus ATCC 25923; [15]): −0.28 Log10 CFU/thigh; AUCc-t (AUC difference between control and treated animals) (S. aureus ATCC 25923; [15]): 29 (Log10 CFU/thigh)/hr; Max Kill (maximum decrease from initial infection level) (S. aureus ATCC 25923; [16]): −1.01 Log10 CFU/thigh; AUCc-t (AUC difference between control and treated animals) (S. aureus ATCC 25923; [16]): 40.1 (Log10 CFU/thigh)/hr; Max Kill (maximum decrease from initial infection level) (S. aureus ATCC 25923; [17]): −1.13 Log10 CFU/thigh; AUCc-t (AUC difference between control and treated animals) (S. aureus ATCC 25923; [17]): 55 (Log10 CFU/thigh)/hr; organism reduction across doses (S. aureus ATCC 25923; 1, 4 and 16 mg/kg intraperitoneal): organism reduction over the entire dose range; in vivo efficacy against S. aureus (in words) (S. aureus ATCC 25923): bactericidal characteristics and prolonged in vivo activity; MIC 50% [4]: 0.03 µg/mL (≈ 0.017 µM); MIC 90% [4]: 0.06 µg/mL (≈ 0.034 µM); MIC 50% [5]: 0.06 µg/mL (≈ 0.034 µM); MIC 90% [5]: 0.12 µg/mL (≈ 0.0681 µM); fold more potent than linezolid (S. pneumoniae (22); S. pneumoniae): 32 fold; MIC 50% (S. pneumoniae (22)): 0.015 µg/mL; MIC 90% (S. pneumoniae (22)): 0.03 µg/mL; MIC 50% [6]: 1 µg/mL (≈ 0.567 µM); MIC 90% [6]: 2 µg/mL (≈ 1.13 µM); MIC 50% [7]: 0.06 µg/mL (≈ 0.034 µM); MIC 90% [7]: 0.12 µg/mL (≈ 0.0681 µM); MIC 50% [8]: 0.12 µg/mL (≈ 0.0681 µM); MIC (B. anthracis Sterne 105): 0.03 µg/mL (≈ 0.017 µM); MIC 50% [9]: 2 µg/mL (≈ 1.13 µM); MIC 90% [9]: 4 µg/mL (≈ 2.27 µM); MIC 50% [10]: 0.015 µg/mL (≈ 0.00851 µM); MIC 90% [10]: 0.03 µg/mL (≈ 0.017 µM); MIC 50% [11]: 0.06 µg/mL (≈ 0.034 µM); MIC 90% [11]: 0.12 µg/mL (≈ 0.0681 µM); modal MIC ([12]; MRSA): 0.06 µg/mL; MIC 50% [12]: 0.06 µg/mL (≈ 0.034 µM); MIC 90% [12]: 0.12 µg/mL (≈ 0.0681 µM); MIC 50% [13]: 0.015 µg/mL (≈ 0.00851 µM); MIC 90% [13]: 0.03 µg/mL (≈ 0.017 µM); MIC 50% [14]: 1 µg/mL (≈ 0.567 µM)

Question: For `CNC(CC(C)C)C(=O)NC1C(=O)NC(CC(N)=O)C(=O)NC2C(=O)NC3C(=O)NC(C(=O)NC(C(=O)NCCOCCOCCOCCN(C)C)c4cc(O)c(CNCCOCCOCCOCCN(C)C)c(O)c4-c4cc3ccc4O)C(O)c3ccc(c(Cl)c3)Oc3cc2cc(c3OC2OC(CO)C(O)C(O)C2OC2CC(C)(NCc3ccc(-c4ccc(Cl)cc4)cc3)C(O)C(C)O2)Oc2ccc(cc2Cl)C1O` (centres unmarked) [Compound 23], which MIC (B. anthracis Sterne 105) is on record?
Answer: The MIC was 0.12 µg/mL (≈ 0.0576 µM).

Question: How did the MIC (B. anthracis Sterne 105) turn out when `CNC(CC(C)C)C(=O)NC1C(=O)NC(CC(N)=O)C(=O)NC2C(=O)NC3C(=O)NC(C(=O)NC(C(=O)NCCOCCOCCOCCN)c4cc(O)c(CNCCOCCOCCOCCN)c(O)c4-c4cc3ccc4O)C(O)c3ccc(c(Cl)c3)Oc3cc2cc(c3OC2OC(CO)C(O)C(O)C2OC2CC(C)(NCc3ccc(-c4ccc(Cl)cc4)cc3)C(O)C(C)O2)Oc2ccc(cc2Cl)C1O` (centres unmarked) [Compound 24] was run?
Answer: Its MIC is 0.03 µg/mL (≈ 0.0148 µM).
